In patent US20260209211A1, “CYCLIN K DEGRADER AND USE THEREOF” (ADLAI NORTYE BIOPHARMA CO., LTD., priority 2022, published 2026):
Read-outs that look alike come from different tables or passages of the source.

Test system: HGC27 (Human Gastric Cancer Cell)
Assay: Bioactivity assay for HGC27 cell growth inhibition (CellTiter-Glo)
Assay type: cell-based
Conditions: read-out: HGC27 CTG IC50
Protocol: This detection method is used to evaluate the biological activity of the compounds of the present disclosure at the cellular level.
HGC27 cells (purchased from the Chinese Academy of Sciences) were harvested, resuspended in complete medium and adjusted to a cell density of 0.2×10^6 cells per ml. The cell suspension was added to a 96-well plate at a volume of 100 μL per well and cultured overnight in a 37° C., 5% CO2 incubator. Prepare the test compound and add it to the cell plate so that the highest concentration of the compound is 10 μM. Set 8 concentration points according to 3-fold dilution. At the same time, 100% inhibition control wells were set, that is, wells with no cells but only an equal volume of complete culture medium; and 0% inhibition control wells, that is, wells with cells added with 0.1% DMSO. The cell plate was cultured at 37° C. and 5% CO2 for 24 hours. Remove the cell culture plate and add 25 μl CellTiter-Glo® Luminescent Cell Viability Reagent (promega cat #G7573) to each well. Incubate in the dark for 10 minutes and then transfer 100 μL to a white plate and use Molecular Devices SpectraMax i3 to detect chemiluminescence. The inhibition rate was calculated using the following formula for data processing: compound inhibition rate=(0% inhibition control well signal−compound treatment well signal)/(0% inhibition control well signal−100% inhibition control well signal)*100%. The calculated data were fitted with four parameters using GraphPad Prism software and the corresponding IC50 was calculated.

[1] = HGC-27, HGC27 cells, 24 hours, CellTiter-Glo, highest concentration 10 μM

Compound | IC50 [1] [nM] | IC50 (HGC-27, 24 h) [nM]
C[C@@H](O)[C@@H](C)Oc1nc(NCc2ccc3c(c2)[nH]c2cccnc23)ncc1C(F)(F)F [Compound 11] | 62 | 
OCc1cccc2c3ccc(CNc4ncc(C(F)(F)F)c(OC5COC5)n4)cc3nn12 [Compound 26] | 387 | 
Cc1ccc2[nH]c3cc(CNc4ncc(C(F)(F)F)c(OC5COC5)n4)ccc3c2n1 [Compound 8] | 308 | 
COc1ccnc2c1[nH]c1cc(CNc3ncc(C(F)(F)F)c(OC4COC4)n3)ccc12 [Compound 35] | 120 | 
Cc1ccnc2c1[nH]c1cc(CNc3ncc(C(F)(F)F)c(OC4COC4)n3)ccc12 [Compound 6] | 145 | 
NCc1cccc2c3ccc(CNc4ncc(C(F)(F)F)c(OC5COC5)n4)cc3nn12 [Compound 28] | 313 | 
N#Cc1cccc2c3ccc(CNc4ncc(C(F)(F)F)c(OC5COC5)n4)cc3nn12 [Compound 24] | 80 | 
C[C@@H](Nc1nc(NCc2ccc3c(c2)[nH]c2c(CO)ccnc23)ncc1C(F)(F)F)C(N)=O [Compound 46] | 79 | 
N#Cc1ccnc2c1[nH]c1cc(CNc3ncc(C(F)(F)F)c(N[C@@H]4CN(C(=O)CO)CC[C@@H]4O)n3)ccc12 [Compound 92] | 48 | 
C[C@@H](O)[C@@H](C)Oc1nc(NCc2ccc3c(c2)[nH]c2c(CN)ccnc23)ncc1C(F)(F)F [Compound 27] | 21 | 
FC(F)(F)c1cnc(NCc2ccc3c(c2)[nH]c2ncsc23)nc1OC1COC1 [Compound 14] | 75 | 
FC(F)(F)c1cnc(NCc2ccc3c(c2)[nH]c2ncccc23)nc1OC1COC1 [Compound 45] | 89 | 
Cc1cc2c(cc1CNc1ncc(C(F)(F)F)c(OC3COC3)n1)[nH]c1cccnc12 [Compound 16] | 520 | 
CC[C@@H](Nc1nc(NCc2ccc3c(c2)[nH]c2c(CNC(C)=O)ccnc23)ncc1C(F)(F)F)C(N)=O [Compound 47] | 266 | 
CC(C)[C@@H](Nc1nc(NCc2ccc3c(c2)nn2c(CO)ccnc32)ncc1C(F)(F)F)C(N)=O [Compound 50] | 257 | 
N#Cc1ccnc2c3ccc(CNc4ncc(C(F)(F)F)c(N[C@@H]5CNCC[C@@H]5O)n4)cc3nn12 [Compound 96] | 110 | 
OCc1ccnc2c1[nH]c1cc(CNc3ncc(C(F)(F)F)c(OC4COC4)n3)ccc12 [Compound 7] | 43 | 
FC(F)(F)c1cnc(NCc2ccc3c(c2)nn2cccnc32)nc1OC1COC1 [Compound 36] |  | 133
FC(F)(F)c1cnc(NCc2ccc3c(c2)[nH]c2scnc23)nc1OC1COC1 [Compound 29] | 374 | 
FC(F)(F)c1cnc(NCc2ccc3c(c2)nn2ccncc32)nc1OC1COC1 [Compound 49] |  | 510
Cn1c2cc(CNc3ncc(C(F)(F)F)c(OC4COC4)n3)ccc2c2ncccc21 [Compound 3] | 342 | 
CC[C@@H](Nc1nc(NCc2ccc3c(c2)[nH]c2cccnc23)ncc1C(F)(F)F)C(N)=O [Compound 4] | 238 | 
NCc1ccnc2c1[nH]c1cc(CNc3ncc(C(F)(F)F)c(OC4COC4)n3)ccc12 [Compound 19] | 62 | 
FC(F)(F)c1cnc(NCc2ccc3c(c2)oc2cccnc23)nc1OC1COC1 [Compound 9] | 292 | 
C[C@@H](O)[C@@H](CO)Nc1nc(NCc2ccc3c(c2)[nH]c2cccnc23)ncc1C(F)(F)F [Compound 5] | 30 | 
FC(F)(F)c1cnc(NCc2ccc3c(n2)[nH]c2cccnc23)nc1OC1COC1 [Compound 10] | 225 | 
FC(F)(F)c1cnc(NCc2ccc3c(c2)nc2cccnn23)nc1OC1COC1 [Compound 51] | 145 | 
CC[C@@H](Nc1nc(NCc2ccc3c(c2)[nH]c2c(CO)ccnc23)ncc1C(F)(F)F)[C@@H](C)O [Compound 23] | 13 | 
FC(F)(F)c1cnc(NCc2cc3[nH]c4cccnc4c3s2)nc1OC1COC1 [Compound 20] | 454 | 
